# Test results reported in ChEMBL document CHEMBL4613209, “Quinolone hybrids and their anti-cancer activities: An overview” (Eur J Med Chem, 2019).
# What was measured:
# [1] = system: PC-3; assay: Antiproliferative activity against human PC3 cells by CCK8 assay; format: functional, cell-based
# [2] = system: A549; assay: Antiproliferative activity against human A549 cells by CCK8 assay; format: functional, cell-based
# [3] = system: MCF-10A; assay: Antiproliferative activity against human MCF10A cells by CCK8 assay; format: cell-based
# [4] = system: HepG2; assay: Antiproliferative activity against human HepG2 cells by CCK8 assay; format: functional, cell-based
# [5] = system: HeLa; assay: Antiproliferative activity against human HeLa cells by CCK8 assay; format: functional, cell-based
# [6] = system: MCF7; assay: Antiproliferative activity against human MCF7 cells by CCK8 assay; format: functional, cell-based
# [7] = system: SMMC-7721; assay: Cytotoxicity against human SMMC7721 cells assessed as reduction in cell viability; format: functional, cell-based
# [8] = system: L1210; assay: Cytotoxicity against mouse L1210 cells assessed as reduction in cell viability; format: functional, cell-based
# [9] = system: HL-60; assay: Cytotoxicity against human HL60 cells assessed as reduction in cell viability; format: functional, cell-based
# [10] = system: U-251; assay: Cytotoxicity against human U251 cells assessed as reduction in cell viability by SRB assay; format: functional, cell-based
# [11] = system: NCI-H460; assay: Cytotoxicity against human NCI-H460 cells assessed as reduction in cell viability by SRB assay; format: functional, cell-based
# [12] = system: HCT-116; assay: Cytotoxicity against human HCT116 cells assessed as reduction in cell viability by SRB assay; format: functional, cell-based
# [13] = system: CAPAN-1; assay: Cytotoxicity against human Capan1 cells assessed as reduction in cell viability; format: functional, cell-based
# [14] = system: Hep 3B2; assay: Cytotoxicity against human Hep3B cells assessed as reduction in cell viability; format: functional, cell-based
SMILES,IC50 [7] [µM],IC50 [8] [µM],IC50 [9] [µM],IC50 [10] [µM],IC50 [11] [µM],IC50 [12] [µM],also measured
C[C@H]1COc2c(N3CCN(C)CC3)c(F)cc3c(=O)c(C(=O)OCc4cn(CCCCCCC(=O)O)nn4)cn1c23,–,–,–,–,–,–,IC50 [1]: 7.8 to 16.5 µM; IC50 [2]: 7.8 to 16.5 µM; IC50 [3]: > 100 µM; IC50 [4]: 7.8 to 16.5 µM; IC50 [5]: 7.8 to 16.5 µM; IC50 [6]: 7.8 to 16.5 µM
C[C@H]1COc2c(N3CCN(C)CC3)c(F)cc3c(=O)c(C(=O)OCc4cn(CCCCCC(=O)O)nn4)cn1c23,–,–,–,–,–,–,IC50 [1]: 7.8 to 16.5 µM; IC50 [2]: 7.8 to 16.5 µM; IC50 [3]: > 100 µM; IC50 [4]: 7.8 to 16.5 µM; IC50 [5]: 7.8 to 16.5 µM; IC50 [6]: 7.8 to 16.5 µM
CCn1cc(-c2nnc(SC/C(=N/NC(N)=S)c3ccc([N+](=O)[O-])cc3)[nH]2)c(=O)c2cc(F)c(N3CCN(C)CC3)cc21,2.7 to 27.6,2.7 to 27.6,2.7 to 27.6,–,–,–,–
CC(=O)n1nc2c(c1-c1cccs1)c(=O)[nH]c1ccccc12,–,–,–,0.16 to 0.3,0.16 to 0.3,0.16 to 0.3,–
CCn1cc(-c2nnc(SC/C(=N/NC(N)=S)c3ccc4c(c3)OCO4)[nH]2)c(=O)c2cc(F)c(N3CCN(C)CC3)cc21,2.7 to 27.6,2.7 to 27.6,2.7 to 27.6,–,–,–,–
CCn1cc(-c2nnc(SC/C(=N/NC(N)=S)c3ccc(OC)cc3)[nH]2)c(=O)c2cc(F)c(N3CCN(C)CC3)cc21,2.7 to 27.6,2.7 to 27.6,2.7 to 27.6,–,–,–,–
O=C(CCCCCCC(=O)Nc1ccccc1)NO [VORINOSTAT],–,–,–,–,–,–,IC50 [2]: 2.9 to 6.4 µM; IC50 [5]: 2.9 to 6.4 µM
COc1ccc2c(c1)c(=O)c(C(=O)Nc1nc3ccccc3s1)cn2CCCCCC(=O)NO,–,–,–,0.6 to 16,0.6 to 16,0.6 to 16,–
Cn1nc(-c2ccccc2)cc1NC(=O)c1cn(CCCCCC(=O)NO)c2ccccc2c1=O,–,–,–,0.6 to 16,0.6 to 16,0.6 to 16,–
O=C(CCCCCn1cc(C(=O)Nc2nc3ccccc3s2)c(=O)c2cc(F)ccc21)NO,–,–,–,0.6 to 16,0.6 to 16,0.6 to 16,–
CCn1cc(-c2nnc(SC/C(=N/NC(N)=S)c3ccc(O)cc3)[nH]2)c(=O)c2cc(F)c(N3CCN(C)CC3)cc21,2.7 to 8.6,2.7 to 8.6,2.7 to 8.6,–,–,–,–
CCn1cc(-c2nnc(SC/C(=N/NC(N)=S)c3ccc(C)cc3)[nH]2)c(=O)c2cc(F)c(N3CCN(C)CC3)cc21,2.7 to 27.6,2.7 to 27.6,2.7 to 27.6,–,–,–,–
CCn1cc(-c2nnc(SC/C(=N/NC(N)=S)c3ccccc3O)[nH]2)c(=O)c2cc(F)c(N3CCN(C)CC3)cc21,2.7 to 8.6,2.7 to 8.6,2.7 to 8.6,–,–,–,–
O=c1[nH]c2ccccc2c2n[nH]c(-c3cn(-c4ccccc4)nc3-c3ccccc3)c12,–,–,–,0.16 to 0.3,0.16 to 0.3,0.16 to 0.3,–
CCn1cc(-c2nnc(SC/C(=N/NC(N)=S)c3ccccc3OC)[nH]2)c(=O)c2cc(F)c(N3CCN(C)CC3)cc21,2.7 to 27.6,2.7 to 27.6,2.7 to 27.6,–,–,–,–
CCn1cc(-c2nnc(SC/C(=N/NC(N)=S)c3ccccc3)[nH]2)c(=O)c2cc(F)c(N3CCN(C)CC3)cc21,2.7 to 27.6,2.7 to 27.6,2.7 to 27.6,–,–,–,–
CCn1cc(C(=O)O)c(=O)c2cc(F)c(N3CCN(C)CC3)cc21 [PEFLOXACIN],> 100,> 100,> 100,–,–,–,–
C[C@H]1COc2c(N3CCN(C)CC3)c(F)cc3c(=O)c(C(=O)NCc4cn(CCCCCCC(=O)O)nn4)cn1c23,–,–,–,–,–,–,IC50 [1]: 7.8 to 16.5 µM; IC50 [2]: 7.8 to 16.5 µM; IC50 [3]: > 100 µM; IC50 [4]: 7.8 to 16.5 µM; IC50 [5]: 7.8 to 16.5 µM; IC50 [6]: 7.8 to 16.5 µM
C[C@H]1COc2c(N3CCN(C)CC3)c(F)cc3c(=O)c(C(=O)O)cn1c23 [LEVOFLOXACIN],–,–,–,–,–,–,IC50 [1]: 64.2 to 100 µM; IC50 [2]: 64.2 to 100 µM; IC50 [3]: 25.2 µM; IC50 [4]: 64.2 to 100 µM; IC50 [5]: 64.2 to 100 µM; IC50 [6]: 64.2 to 100 µM
COc1ccc(/C=c2\sc3nc(-c4cn(C5CC5)c5cc(N6CCN(C)CC6)c(F)cc5c4=O)nn3c2=O)cc1,–,–,> 10,–,–,–,IC50 [13]: > 10 µM; IC50 [14]: > 10 µM
O=c1[nH]cc(F)c(=O)[nH]1 [FLUOROURACIL],–,–,–,0.54,0.54,0.54,–

SMILES,IC50 [7] [µM],IC50 [8] [µM],IC50 [9] [µM],IC50 [10] [µM],IC50 [11] [µM],IC50 [12] [µM],also measured
COc1ccc2c(c1)c(=O)c(C(=O)Nc1cc(-c3ccccc3)nn1C)cn2CCCCCC(=O)NO,–,–,–,0.6 to 16,0.6 to 16,0.6 to 16,–
CN1CCN(c2cc3c(cc2F)c(=O)c(-c2nc4s/c(=C\c5ccc([N+](=O)[O-])cc5)c(=O)n4n2)cn3C2CC2)CC1,–,–,0.3 to 8.4,–,–,–,IC50 [13]: 0.3 to 8.4 µM; IC50 [14]: 0.3 to 8.4 µM
O=c1[nH]c2ccccc2c2nn(-c3ccccc3)c(-c3cn(-c4ccccc4)nc3-c3ccccc3)c12,–,–,–,0.16 to 0.3,0.16 to 0.3,0.16 to 0.3,–
COc1ccc(-c2c3c(=O)[nH]c4ccccc4c3nn2C(C)=O)cc1,–,–,–,0.16 to 0.3,0.16 to 0.3,0.16 to 0.3,–
CN1CCN(c2cc3c(cc2F)c(=O)c(-c2nc4s/c(=C\c5cccc([N+](=O)[O-])c5)c(=O)n4n2)cn3C2CC2)CC1,–,–,0.3 to 8.4,–,–,–,IC50 [13]: 0.3 to 8.4 µM; IC50 [14]: 0.3 to 8.4 µM
C[C@H]1COc2c(N3CCN(C)CC3)c(F)cc3c(=O)c(C(=O)NCc4cn(CCCCCC(=O)O)nn4)cn1c23,–,–,–,–,–,–,IC50 [1]: 7.8 to 16.5 µM; IC50 [2]: 7.8 to 16.5 µM; IC50 [3]: > 100 µM; IC50 [4]: 7.8 to 16.5 µM; IC50 [5]: 7.8 to 16.5 µM; IC50 [6]: 7.8 to 16.5 µM
CCn1cc(-c2nnc(SC/C(=N/NC(N)=S)c3ccc(Cl)cc3)[nH]2)c(=O)c2cc(F)c(N3CCN(C)CC3)cc21,2.7 to 27.6,2.7 to 27.6,2.7 to 27.6,–,–,–,–
CN1CCN(c2cc3c(cc2F)c(=O)c(-c2nc4s/c(=C\c5cccc(C#N)c5)c(=O)n4n2)cn3C2CC2)CC1,–,–,> 10,–,–,–,IC50 [13]: > 10 µM; IC50 [14]: > 10 µM
Cc1csc(NC(=O)c2cn(CCCCCC(=O)NO)c3ccccc3c2=O)n1,–,–,–,2.43 to 2.9,2.43 to 2.9,2.43 to 2.9,–
CCn1cc(-c2nnc(SC/C(=N/NC(N)=S)c3ccc(O)c(OC)c3)[nH]2)c(=O)c2cc(F)c(N3CCN(C)CC3)cc21,2.7 to 8.6,2.7 to 8.6,2.7 to 8.6,–,–,–,–
CN1CCN(c2cc3c(cc2F)c(=O)c(-c2nc4s/c(=C\c5cccc(S(N)(=O)=O)c5)c(=O)n4n2)cn3C2CC2)CC1,–,–,0.3 to 8.4,–,–,–,IC50 [13]: 0.3 to 8.4 µM; IC50 [14]: 0.3 to 8.4 µM
COc1ccccc1/C=c1\sc2nc(-c3cn(C4CC4)c4cc(N5CCN(C)CC5)c(F)cc4c3=O)nn2c1=O,–,–,> 10,–,–,–,IC50 [13]: > 10 µM; IC50 [14]: > 10 µM
CN1CCN(c2cc3c(cc2F)c(=O)c(-c2nc4s/c(=C\c5ccc(C(=O)O)cc5)c(=O)n4n2)cn3C2CC2)CC1,–,–,0.3 to 8.4,–,–,–,IC50 [13]: 0.3 to 8.4 µM; IC50 [14]: 0.3 to 8.4 µM
CCn1cc(-c2nnc(SC/C(=N/NC(N)=S)c3ccc(F)cc3)[nH]2)c(=O)c2cc(F)c(N3CCN(C)CC3)cc21,2.7 to 8.6,2.7 to 8.6,2.7 to 8.6,–,–,–,–
C[C@H]1COc2c(N3CCN(C)CC3)c(F)cc3c(=O)c(C(=O)OCc4cn(CCCCCCCC(=O)O)nn4)cn1c23,–,–,–,–,–,–,IC50 [1]: 7.8 to 16.5 µM; IC50 [2]: 7.8 to 16.5 µM; IC50 [3]: > 100 µM; IC50 [4]: 7.8 to 16.5 µM; IC50 [5]: 7.8 to 16.5 µM; IC50 [6]: 7.8 to 16.5 µM
CCn1cc(-c2nnc(SC/C(=N/NC(N)=S)c3ccc(OC)c(OC)c3)[nH]2)c(=O)c2cc(F)c(N3CCN(C)CC3)cc21,2.7 to 27.6,2.7 to 27.6,2.7 to 27.6,–,–,–,–
O=c1[nH]c2ccccc2c2n[nH]c(/C=C/c3ccccc3)c12,–,–,–,0.16 to 0.3,0.16 to 0.3,0.16 to 0.3,–
O=C(CCCCCn1cc(C(=O)Nc2nccs2)c(=O)c2ccccc21)NO,–,–,–,5 to 16,5 to 16,5 to 16,–
C[C@H]1COc2c(N3CCN(C)CC3)c(F)cc3c(=O)c(C(=O)NCc4cn(CCCCCCCC(=O)O)nn4)cn1c23,–,–,–,–,–,–,IC50 [1]: 7.8 to 16.5 µM; IC50 [2]: 7.8 to 16.5 µM; IC50 [3]: > 100 µM; IC50 [4]: 7.8 to 16.5 µM; IC50 [5]: 7.8 to 16.5 µM; IC50 [6]: 7.8 to 16.5 µM
O=C(CCCCCn1cc(C(=O)Nc2nc3ccccc3s2)c(=O)c2ccccc21)NO,–,–,–,0.6 to 1,0.6 to 1,0.6 to 1,–
CC(=O)n1cc2c(=O)[nH]c3ccccc3c2n1,–,–,–,0.16 to 0.3,0.16 to 0.3,0.16 to 0.3,–
